According to the NIST ThermoML archive (doi:10.1016/j.fluid.2011.05.004):
Blank lines part the entries; values can stand above or below the molecule they belong to.

Details: Liquid, Chromatography

vapor or sublimation pressure (323.65 K): 20 kPa
vapor or sublimation pressure (372.33 K): 101.3 kPa
SMILES: CC(C)CC(C)(C)C [2,2,4-trimethylpentane]

SMILES: CCC(C)=O [butanone]
vapor or sublimation pressure (309.65 K): 20 kPa
vapor or sublimation pressure (319.95 K): 30 kPa
vapor or sublimation pressure (352.68 K): 101.3 kPa

vapor or sublimation pressure (324.56 K): 20 kPa
vapor or sublimation pressure (371.35 K): 101.3 kPa
SMILES: CCCCCCC [heptane]

vapor or sublimation pressure (307.66 K): 30 kPa
vapor or sublimation pressure (341.79 K): 101.3 kPa
SMILES: CCCCCC [hexane]
